The supplement of paper PMC10307832

Tests used:
Assay in all cases: relative viability (nuclei count vs DMSO), 5 days (fraction); higher = more cells survive
[1] = compound: C1=CC=C2C(=C1)C=CC(=C2SSC3=C(C=CC4=CC=CC=C43)O)O [IPA-3] + CC(C)C[C@H](NC(=O)[C@H](Cc1ccccc1)NC(=O)c1cnccn1)B(O)O [Bortezomib] (partner 0.002 µM)
Procedure, shortened: (§1)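 Dosing by pin tool came one day after lung cancer cell lines were seeded in 1536-well plates, using either one drug or a fixed anchor-drug dose plus five library-drug doses (not always all listed) in √10 steps. After 5 days, nuclei were counted on 4× images. Relative viability is treated-well nuclei count divided by vehicle-well nuclei count, and values are medians of duplicate plates.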

[2] = compound: C1=CC=C2C(=C1)C=CC(=C2SSC3=C(C=CC4=CC=CC=C43)O)O [IPA-3] + C[C@]1(O)C[C@@H](c2nc(-c3ccc4ccc(-c5ccccc5)nc4c3)c3c(N)nccn32)C1 [Linsitinib] (partner 1 µM)
Procedure, shortened: as §1

[3] = compound: C1=CC=C2C(=C1)C=CC(=C2SSC3=C(C=CC4=CC=CC=C43)O)O [IPA-3] + N=C(N)NC(=N)NCCc1ccccc1 [Phenformin] (partner 250 µM)
Procedure, shortened: as §1

[4] = compound: Cn1c(Nc2ccc(C(F)(F)F)cc2)nc2cc(Oc3ccnc(-c4ncc(C(F)(F)F)[nH]4)c3)ccc21 [RAF265] + Cc1nc(Nc2ncc(C(=O)Nc3c(C)cccc3Cl)s2)cc(N2CCN(CCO)CC2)n1 [Dasatinib] (partner 0.075 µM)
Procedure, shortened: as §1

Cell Line	relative viability ([1]; first compound 0.2 µM)	relative viability ([1]; first compound 0.6325 µM)	relative viability ([1]; first compound 2 µM)	relative viability ([1]; first compound 6.325 µM)	relative viability ([1]; first compound 20 µM)	relative viability ([2]; first compound 0.2 µM)	relative viability ([2]; first compound 2 µM)	relative viability ([2]; first compound 6.325 µM)	relative viability ([2]; first compound 20 µM)	relative viability ([3]; first compound 0.2 µM)	relative viability ([3]; first compound 0.6325 µM)	relative viability ([3]; first compound 2 µM)	relative viability ([3]; first compound 6.325 µM)	relative viability ([3]; first compound 20 µM)	relative viability ([4]; first compound 0.01 µM)	relative viability ([4]; first compound 0.03162 µM)	relative viability ([4]; first compound 0.1 µM)	relative viability ([4]; first compound 0.3162 µM)	relative viability ([4]; first compound 1 µM)	relative viability ([2]; first compound 0.6325 µM)
SK-LU-1	1.14	1.21	1.09	1.19	1.62	1.44	1.27	0.893	1.11	0.775	0.54	0.499	0.509	0.588	0.177	0.177	0.166	0.181	0.137	–
LOU-NH91	0.493	0.479	0.498	0.478	0.597	0.985	0.979	0.99	1.14	0.793	0.666	0.721	0.677	0.954	0.563	0.49	0.497	0.45	0.343	0.92
LXF-289	1.03	0.954	1.04	1.04	1.1	1.09	0.951	1.02	1.11	0.536	0.47	0.544	0.514	0.546	0.246	0.152	0.16	0.142	0.0862	0.961
NCI-H1299	0.995	1.01	0.996	0.996	1	1.16	0.942	0.946	0.999	–	–	–	–	–	–	–	–	–	–	0.99
HARA	1.16	1.06	1.13	1.01	1.24	1.08	0.935	0.916	1.02	0.653	0.427	0.432	0.442	0.564	0.298	0.385	0.256	0.184	0.137	0.912
LU99A	1.23	1.07	1.28	1.04	1.06	0.563	0.553	0.517	0.547	0.883	0.764	0.858	0.933	0.799	0.534	0.454	0.472	0.3	0.179	0.476
201T	1.08	0.931	1.08	1.12	1.13	0.986	1.04	1.04	1.09	0.452	0.454	0.484	0.461	0.469	0.575	0.624	0.532	0.495	0.458	0.992
HCC-827	1.1	0.936	1.01	0.996	1	0.916	0.935	0.917	0.925	0.383	0.379	0.396	0.441	0.457	0.277	0.259	0.422	–	0.234	0.943
NCI-H1666	0.903	0.808	0.887	0.76	0.73	0.865	0.857	0.763	0.693	0.654	0.552	0.547	1.04	0.469	0.868	0.814	0.768	0.87	0.781	0.87
NCI-H1915	1.15	0.974	0.952	0.971	1.09	1.12	1.11	1.08	1.09	0.388	0.36	0.371	0.338	0.389	0.342	0.332	0.213	0.151	0.137	1.13
NCI-H2009	1.27	0.95	1.09	0.943	0.715	1.26	1.24	1.13	1.18	0.539	0.477	0.495	0.445	0.387	0.3	0.262	0.227	0.214	0.147	1.17
ChaGo-K-1	1.03	1.1	0.861	1.08	1.31	–	–	–	–	0.614	0.494	0.494	0.494	0.605	0.64	0.644	0.515	0.42	0.497	–
COR-L 105	0.856	0.885	0.7	0.879	0.603	1.07	0.843	0.542	0.962	0.634	0.445	0.49	0.418	0.55	0.311	0.319	0.258	0.159	0.158	0.98
NCI-H2170	–	–	–	–	–	–	–	–	–	0.438	0.358	0.457	0.356	0.481	0.663	0.474	0.539	0.241	0.432	–
A549	–	–	–	–	–	0.653	0.683	0.591	0.775	0.197	–	0.142	0.189	0.298	–	–	–	–	–	0.582
SW 1573	1.18	1.04	1.36	1.13	1.25	1.07	0.682	0.833	0.843	0.465	0.35	0.401	0.342	0.17	0.54	0.442	0.31	0.29	0.21	0.921
NCI-H1975	0.373	0.375	0.387	0.421	0.481	1.06	1.02	1.03	1.09	0.43	0.385	0.43	0.429	0.381	0.335	0.226	0.237	0.177	0.124	1.01
Calu-6	1.02	1.04	0.895	0.959	0.837	1.14	0.878	0.952	0.958	–	–	–	–	–	–	–	–	–	–	0.937
SW 900	–	–	–	–	–	–	–	–	–	0.783	0.575	0.556	0.784	0.677	0.595	0.548	0.552	0.297	0.272	–
NCI-H1623	–	–	–	–	–	–	–	–	–	0.605	0.583	0.618	0.563	0.655	0.558	0.496	0.645	–	0.313	–

Cell Line	relative viability ([1]; first compound 0.2 µM)	relative viability ([1]; first compound 0.6325 µM)	relative viability ([1]; first compound 2 µM)	relative viability ([1]; first compound 6.325 µM)	relative viability ([1]; first compound 20 µM)	relative viability ([2]; first compound 0.2 µM)	relative viability ([2]; first compound 2 µM)	relative viability ([2]; first compound 6.325 µM)	relative viability ([2]; first compound 20 µM)	relative viability ([3]; first compound 0.2 µM)	relative viability ([3]; first compound 0.6325 µM)	relative viability ([3]; first compound 2 µM)	relative viability ([3]; first compound 6.325 µM)	relative viability ([3]; first compound 20 µM)	relative viability ([4]; first compound 0.01 µM)	relative viability ([4]; first compound 0.03162 µM)	relative viability ([4]; first compound 0.1 µM)	relative viability ([4]; first compound 0.3162 µM)	relative viability ([4]; first compound 1 µM)	relative viability ([2]; first compound 0.6325 µM)
NCI-H3122	0.994	1.01	1.03	1.13	0.938	1.05	0.961	1.08	1.05	0.442	0.38	0.389	0.31	0.362	0.463	0.937	0.904	0.669	0.521	1.01
NCI-H2347	0.916	1.01	1.12	0.937	1.3	1.02	0.879	0.947	0.972	0.334	0.448	0.33	0.406	0.736	0.358	0.331	0.341	0.213	0.237	0.903
HCC-44	0.918	0.852	0.897	0.894	0.835	0.772	0.708	0.632	0.686	0.232	0.245	0.176	0.234	0.184	–	–	–	–	–	0.588
HCC-78	0.624	0.359	0.555	0.479	0.675	0.569	0.454	0.583	0.635	0.768	0.64	0.728	0.801	0.692	0.371	0.482	0.457	0.387	0.34	0.597
COR-L23	1.12	0.946	1.06	0.939	0.802	1.13	0.92	0.797	0.819	0.532	0.426	0.471	0.431	0.232	0.503	0.473	0.383	0.32	0.251	0.837
NCI-H1993	1.04	1.14	1.14	1.1	1.21	0.707	0.761	0.782	0.612	0.467	0.515	0.538	0.547	0.514	0.618	0.497	0.545	0.619	0.528	0.688
NCI-H2405	1.02	0.944	1.02	0.963	1.02	0.953	0.936	0.912	1.03	0.437	0.386	0.418	0.389	0.489	0.242	0.194	0.191	0.159	0.193	0.923
NCI-H2126	1.19	1.11	1.13	1.11	1.19	0.74	0.7	0.768	0.812	0.57	0.517	0.506	0.516	0.629	0.716	0.656	0.622	0.464	0.354	0.659
NCI-H1944	–	–	–	–	–	1.2	1.23	1.48	1.3	0.212	0.186	0.189	0.219	0.176	0.284	0.277	0.225	0.178	0.19	1.12
NCI-H358	–	–	–	–	–	0.789	0.792	0.686	0.882	0.433	0.355	0.306	0.359	0.278	0.179	0.217	0.16	0.171	0.0873	0.687
NCI-H2342	–	–	–	–	–	–	–	–	–	0.629	0.619	0.568	0.825	0.731	0.319	0.349	0.298	0.276	0.288	–
NCI-H1793	–	–	–	–	–	1.24	0.977	1.06	1.15	0.509	0.317	0.334	0.458	0.545	0.486	0.401	0.361	–	0.227	0.794
NCI-H522	–	–	–	–	–	–	–	–	–	0.648	0.657	0.582	0.697	0.76	0.847	0.9	0.811	0.919	0.764	–
SK-MES-1	–	–	–	–	–	1.13	1.07	1.07	1.02	0.635	0.625	0.667	0.573	0.533	0.482	0.203	0.164	0.171	0.157	1.01
EBC-1	0.488	0.548	0.546	0.546	0.581	1.12	0.911	0.841	0.871	–	–	–	–	–	–	–	–	–	–	0.729
LK-2	–	–	–	–	–	0.553	0.595	0.526	0.518	0.408	0.456	0.421	0.43	0.438	0.272	0.295	0.291	0.394	0.213	0.436
NCI-H1650	0.223	0.193	0.186	0.283	0.27	–	–	–	–	0.564	0.346	0.424	0.512	0.364	0.413	0.392	0.342	0.399	0.282	–
IA-LM	0.883	0.808	0.842	0.703	0.546	0.922	0.639	0.505	0.404	–	–	–	–	–	–	–	–	–	–	0.526
NCI-H1703	0.265	0.288	0.463	0.579	0.445	1.1	0.974	0.787	1.05	–	–	–	–	–	–	–	–	–	–	0.39
NCI-H1395	–	–	–	–	–	1.2	1.19	1.02	1.11	0.46	0.431	0.446	0.479	0.469	0.449	0.432	0.395	0.336	0.372	1.04
